target: Receptor tyrosine-protein kinase erbB-2 (Homo sapiens, UniProt P04626); test: ErbB Enzyme Assay
Procedure: The kinases were incubated with 250 nM TK-substrate biotin (CisBio, part of cat #62TK0PEC) at 1 mM ATP along with test compounds in a buffer consisting of 25 mM HEPES, pH 7.4, 10 mM MgCl2, 0.01% Triton X-100, and 2% DMSO in a volume of 8 uL. Compounds were prepared as a three-fold serial dilution in DMSO and added to the assay to give the appropriate final concentration. After 30-minute incubation at 22 C., the reaction was quenched by adding 8 uL of quench solution containing 62.5 nM Sa-XL665 and 0.25x TK-Ab-Cryptate in HTRF detection buffer (all from CisBio, part of cat #62TK0PEC). After a 1-hour incubation at 22 C., the extent of reaction was determined using a PerkinElmer EnVision multimode plate reader via HTRF dual wavelength detection, and the percent of control (POC) was calculated using a ratiometric emission factor.

Chain of Receptor tyrosine-protein kinase erbB-2 (P04626 whole entry): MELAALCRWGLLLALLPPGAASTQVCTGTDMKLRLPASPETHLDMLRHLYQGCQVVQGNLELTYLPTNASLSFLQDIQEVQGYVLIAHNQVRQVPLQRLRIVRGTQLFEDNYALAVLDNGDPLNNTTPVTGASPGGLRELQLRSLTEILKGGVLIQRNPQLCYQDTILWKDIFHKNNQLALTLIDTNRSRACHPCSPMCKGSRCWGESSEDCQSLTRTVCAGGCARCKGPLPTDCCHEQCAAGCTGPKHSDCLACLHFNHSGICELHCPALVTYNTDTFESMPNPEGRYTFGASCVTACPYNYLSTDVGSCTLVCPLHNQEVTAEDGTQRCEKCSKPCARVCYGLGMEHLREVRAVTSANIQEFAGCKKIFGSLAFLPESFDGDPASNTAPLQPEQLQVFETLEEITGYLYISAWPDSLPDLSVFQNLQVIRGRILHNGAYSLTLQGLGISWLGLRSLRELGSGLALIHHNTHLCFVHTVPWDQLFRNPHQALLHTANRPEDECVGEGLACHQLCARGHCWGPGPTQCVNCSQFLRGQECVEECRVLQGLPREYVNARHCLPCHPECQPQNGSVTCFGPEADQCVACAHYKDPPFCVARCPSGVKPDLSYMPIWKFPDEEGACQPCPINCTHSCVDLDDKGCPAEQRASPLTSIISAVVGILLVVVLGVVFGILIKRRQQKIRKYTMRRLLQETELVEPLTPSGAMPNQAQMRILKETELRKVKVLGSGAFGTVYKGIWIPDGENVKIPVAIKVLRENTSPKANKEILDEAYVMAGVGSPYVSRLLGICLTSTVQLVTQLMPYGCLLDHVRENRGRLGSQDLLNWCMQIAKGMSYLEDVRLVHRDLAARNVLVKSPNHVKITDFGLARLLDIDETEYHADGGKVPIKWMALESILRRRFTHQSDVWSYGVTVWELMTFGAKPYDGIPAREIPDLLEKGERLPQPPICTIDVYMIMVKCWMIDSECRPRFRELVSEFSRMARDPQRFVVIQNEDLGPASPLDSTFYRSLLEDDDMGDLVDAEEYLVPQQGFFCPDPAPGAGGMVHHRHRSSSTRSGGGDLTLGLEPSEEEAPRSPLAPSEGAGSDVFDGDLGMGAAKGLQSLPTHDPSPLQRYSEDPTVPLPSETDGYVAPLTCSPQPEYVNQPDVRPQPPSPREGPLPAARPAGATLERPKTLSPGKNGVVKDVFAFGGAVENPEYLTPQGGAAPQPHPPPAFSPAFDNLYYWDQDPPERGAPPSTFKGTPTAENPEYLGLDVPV

Row | SMILES | IC50 [nM]
1 | Cc1cc(Nc2ncnc3cnc(N4C[C@H]5CC[C@@H]4CO5)nc23)ccc1Oc1ccn2ncnc2c1 [US11834453, Example 127] | 114
2 | Cc1cc(Nc2ncnc3cnc(N4CCCO4)nc23)ccc1Oc1ccc2c(c1)ncn2C [US11834453, Example 178] | 67.1
3 | Cc1cc(Nc2ncnc3cnc(N(C)C[C@@H](C)O)nc23)ccc1Oc1ccc2c(c1)ncn2C [US11834453, Example 189] | 32.2
4 | Cc1cc(Nc2ncnc3cnc(N4CC(C)(O)CO4)nc23)ccc1Oc1ccc2c(c1)ncn2C (stereo not drawn) [US11834453, Example 191] | 171
5 | Cc1cc(Nc2ncnc3cnc(N(C)CCO)nc23)ccc1Oc1ccc2c(c1)ncn2C [US11834453, Example 208] | 25.6

The next lines start with the values.

Row | IC50 [nM] | SMILES
6 | 121 | CCOc1ncc2ncnc(Nc3ccc(Oc4ccc5c(c4)ncn5C)c(C)c3)c2n1 [US11834453, Example 13]
7 | 60.6 | Cc1cc(Nc2ncnc3cnc(N4CC5C6CCC(O6)C5C4)nc23)ccc1Oc1ccc2c(c1)ncn2C (stereo not drawn) [US11834453, Example 16]
8 | 37.5 | Cc1cc(Nc2ncnc3cnc(N(C)C[C@H](C)O)nc23)ccc1Oc1ccc2c(c1)ncn2C [US11834453, Example 195]
